Data published in patent US20180071317A1, “USE OF AGENTS THAT ALTER THE PERITUMORAL ENVIRONMENT FOR THE TREATMENT OF CANCER” (SERVICIO ANDALUZ DE SALUD, priority 2011, published 2018).

Assays:
polymorphonuclear cells = assay: Marker expression (immunohistochemistry) in polymorphonuclear blood cells with SP alone or with NK1 antagonists; type: cell-based, human; conditions: SP 1 μM + antagonist 1 μM; 48 h
Text: Briefly, heparinized blood from healthy donors was centrifuged so as to separate the various components thereof. Red blood cells remained at the bottom of the tube. Above them was a small white layer composed of the white blood cells and above, on top of the tube, the blood plasma. The layer of white cells was distributed in a culture plate of 24 wells by adding in each the same concentration of blood plasma from the same donor, supplemented with 1% antibiotic-antimycotic (Invitrogen). In each well, approximately 1000 cells (PHF) skin from the dermis were further added, obtained as previously described in Example 2. […] After 48 hours of incubation, cells were collected and embedded in paraffin for expression analysis by immunohistochemical techniques (as described in Example 1).
The expression of TGF molecular markers (anti-TGF 2, SAB4502956) and NF-kB (anti-NF-kB, SAB4501992) using specific antibodies against them were analyzed. All antibodies used were rabbit polyclonal antibodies obtained from Sigma Aldrich and were used at a concentration of 1/1000. All experiments were carried out sixfold.

[1] = tested on: fibroblasts (PHF) co-cultured with tumor cells of human gastric adenocarcinoma (23132/87); assay: Marker expression (IHC) in PHF co-cultured with 23132/87 tumor cells; type: cell-based; conditions: co-culture with 23132/87; SP 1 μM + antagonist 1 μM; 48 h;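 note: cultures grown in fresh plasma from a healthy human donor, values give the percentage of PHF fibroblasts positive for the marker, each experiment run in six replicates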
[2] = tested on: fibroblasts (PHF) co-cultured with tumor cells in human prostate carcinoma (22Rv1); assay: Marker expression (IHC) in PHF co-cultured with 22Rv1 tumor cells; type: cell-based; conditions: co-culture with 22Rv1; SP 1 μM + antagonist 1 μM; 48 h;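 note: cultures grown on fresh plasma from a healthy donor, each experiment run sixfold, values give the percentage of fibroblasts positive for the given marker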
Experimental: (§1) All cultures were maintained 48 hours, following which the same cells were included in paraffin blocks for subsequent analysis of the expression of different markers by immunohistochemistry (see Example 1). […] All experiments were carried out sixfold. Analyzed markers in fibroblast cells (stromal cells) were: TGF-α, TGF-β1, TGF-β2, TGF-β3, SPARC, MMP-3, MMP-7, MMP-9, MMP-11, MMP-13 and MMP-14.

[3] = tested on: fibroblasts (PHF) co-cultured with human glioma tumor cells (GAMG); assay: Marker expression (IHC) in PHF co-cultured with GAMG tumor cells; type: cell-based; conditions: co-culture with GAMG; SP 1 μM + antagonist 1 μM; 48 h;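 note: percentage of PHF fibroblasts positive for each marker, cultured in fresh plasma from a healthy donor, six replicates, with fibroblasts cultured alone as reference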
Experimental: as §1

[4] = tested on: fibroblasts (PHF) cells co-cultured with human T lymphoma tumor (DERL-7); assay: Marker expression (IHC) in PHF co-cultured with DERL-7 tumor cells; type: cell-based; conditions: PHF co-cultured with DERL-7 + SP + NK1 antagonist
[5] = tested on: fibroblast cells in co-culture with cells isolated from primary human tumors; assay: Marker expression (IHC) in fibroblasts co-cultured with primary human tumor cells (colon, pancreatic, lung carcinoma, glioma, multiple myeloma); type: cell-based
Experimental: To check that the interaction of the human primary tumor cells with stromal cells, [human fibroblasts,] stimulates the secretion of substances of importance for survival and tumor progression, co-cultures were performed using stromal cells with human fibroblast-tumor cells obtained directly from primary human tumors.
On this occasion, in order to identify, using immunohistochemical techniques, the secretion of substances of importance for the survival and progression of tumors, the following antibodies were used: TGF-α (SAB4502953), TGF-β1 (SAB4502954), TGF-β2 (SAB4502956), TGF-β3 (SAB4502957), SPARC (HPA002989), MMP-3 (HPA007875), MMP-7 (SAB4501894), MMP-9 (SAB4501896), MMP-11 (SAB4501898) MMP-13 (SAB4501900) and MMP-14 (SAB4501901) using specific antibodies against them. All antibodies used were rabbit polyclonal antibodies obtained from Sigma-Aldrich and were used at a concentration of 1/1000 to achieve these immunohistochemical studies. All experiments were carried out sixfold.

[6] = Primary tumor cells (colon carcinoma) co-cultured + fibroblast + SP (1 μM) + NK1 antagonist 1 μM
[7] = co-culture with cells isolated from glioma, SP 1 μM + antagonist 1 μM
[8] = co-culture with cells isolated from lung cancer, SP 1 μM + antagonist 1 μM
[9] = co-culture with cells isolated from multiple myeloma, SP 1 μM + antagonist 1 μM
[10] = co-culture with cells isolated from pancreatic carcinoma, SP 1 μM + antagonist 1 μM

CC(=O)N1CCN([C@H]2CCN(C(=O)N(C)[C@H](C)c3cc(C(F)(F)F)cc(C(F)(F)F)c3)[C@@H](c3ccc(F)cc3C)C2)CC1 [Casopitant]
0%: polymorphonuclear cells expressing NF-kB (polymorphonuclear cells) | polymorphonuclear cells expressing TGF-β (polymorphonuclear cells) | PHF cells expressing MMP-3 [1] | PHF cells expressing MMP-7 [1] | PHF cells expressing MMP-9 [1] | PHF cells expressing MMP-11 [1] | PHF cells expressing MMP-13 [1] | PHF cells expressing MMP-14 [1] | PHF cells expressing SPARC [1] | PHF cells expressing TGF-α [1] | PHF cells expressing TGF-β1 [1] | PHF cells expressing TGF-β2 [1] | PHF cells expressing TGF-β3 [1] | PHF cells expressing MMP-3 [2] | PHF cells expressing MMP-7 [2] | PHF cells expressing MMP-9 [2] | PHF cells expressing MMP-11 [2] | PHF cells expressing MMP-13 [2] | PHF cells expressing MMP-14 [2] | PHF cells expressing SPARC [2] | PHF cells expressing TGF-α [2] | PHF cells expressing TGF-β1 [2] | PHF cells expressing TGF-β2 [2] | PHF cells expressing TGF-β3 [2] | PHF cells expressing MMP-3 [3] | PHF cells expressing MMP-7 [3] | PHF cells expressing MMP-9 [3] | PHF cells expressing MMP-11 [3] | PHF cells expressing MMP-13 [3] | PHF cells expressing MMP-14 [3] | PHF cells expressing SPARC [3] | PHF cells expressing TGF-α [3] | PHF cells expressing TGF-β1 [3] | PHF cells expressing TGF-β2 [3] | PHF cells expressing TGF-β3 [3] | cells expressing MMP-3 [4] | cells expressing MMP-7 [4] | cells expressing MMP-9 [4] | cells expressing MMP-11 [4] | cells expressing MMP-13 [4] | cells expressing MMP-14 [4] | cells expressing SPARC [4] | cells expressing TGF-α [4] | cells expressing TGF-β1 [4] | cells expressing TGF-β2 [4] | cells expressing TGF-β3 [4] | Percentage of fibroblast cells which expressed MMP-3 [5, 6] | Percentage of fibroblast cells which expressed MMP-7 [5, 6] | Percentage of fibroblast cells which expressed MMP-9 [5, 6] | Percentage of fibroblast cells which expressed MMP-11 [5, 6] | Percentage of fibroblast cells which expressed MMP-13 [5, 6] | Percentage of fibroblast cells which expressed MMP-14 [5, 6] | Percentage of fibroblast cells which expressed SPARC [5, 6] | Percentage of fibroblast cells which expressed TGFα [5, 6] | Percentage of fibroblast cells which expressed TGFβ1 [5, 6] | Percentage of fibroblast cells which expressed TGFβ2 [5, 6] | Percentage of fibroblast cells which expressed TGFβ3 [5, 6] | Percentage of fibroblast cells which expressed MMP-3 [5, 7] | Percentage of fibroblast cells which expressed MMP-7 [5, 7] | Percentage of fibroblast cells which expressed MMP-9 [5, 7] | Percentage of fibroblast cells which expressed MMP-11 [5, 7] | Percentage of fibroblast cells which expressed MMP-13 [5, 7] | Percentage of fibroblast cells which expressed MMP-14 [5, 7] | Percentage of fibroblast cells which expressed SPARC [5, 7] | Percentage of fibroblast cells which expressed TGFα [5, 7] | Percentage of fibroblast cells which expressed TGFβ1 [5, 7] | Percentage of fibroblast cells which expressed TGFβ2 [5, 7] | Percentage of fibroblast cells which expressed TGFβ3 [5, 7] | Percentage of fibroblast cells which expressed MMP-3 [5, 8] | Percentage of fibroblast cells which expressed MMP-7 [5, 8] | Percentage of fibroblast cells which expressed MMP-9 [5, 8] | Percentage of fibroblast cells which expressed MMP-11 [5, 8] | Percentage of fibroblast cells which expressed MMP-13 [5, 8] | Percentage of fibroblast cells which expressed MMP-14 [5, 8] | Percentage of fibroblast cells which expressed SPARC [5, 8] | Percentage of fibroblast cells which expressed TGFα [5, 8] | Percentage of fibroblast cells which expressed TGFβ1 [5, 8] | Percentage of fibroblast cells which expressed TGFβ2 [5, 8] | Percentage of fibroblast cells which expressed TGFβ3 [5, 8] | Percentage of fibroblast cells which expressed MMP-3 [5, 9] | Percentage of fibroblast cells which expressed MMP-7 [5, 9] | Percentage of fibroblast cells which expressed MMP-9 [5, 9] | Percentage of fibroblast cells which expressed MMP-11 [5, 9] | Percentage of fibroblast cells which expressed MMP-13 [5, 9] | Percentage of fibroblast cells which expressed MMP-14 [5, 9] | Percentage of fibroblast cells which expressed SPARC [5, 9] | Percentage of fibroblast cells which expressed TGFα [5, 9] | Percentage of fibroblast cells which expressed TGFβ1 [5, 9] | Percentage of fibroblast cells which expressed TGFβ2 [5, 9] | Percentage of fibroblast cells which expressed TGFβ3 [5, 9] | Percentage of fibroblast cells which expressed MMP-3 [5, 10] | Percentage of fibroblast cells which expressed MMP-7 [5, 10] | Percentage of fibroblast cells which expressed MMP-9 [5, 10] | Percentage of fibroblast cells which expressed MMP-11 [5, 10] | Percentage of fibroblast cells which expressed MMP-13 [5, 10] | Percentage of fibroblast cells which expressed MMP-14 [5, 10] | Percentage of fibroblast cells which expressed SPARC [5, 10] | Percentage of fibroblast cells which expressed TGFα [5, 10] | Percentage of fibroblast cells which expressed TGFβ1 [5, 10] | Percentage of fibroblast cells which expressed TGFβ2 [5, 10] | Percentage of fibroblast cells which expressed TGFβ3 [5, 10]
